Patent US5447934A, “Anti-allergic thiadiazolo [4,3-a]pyridine derivatives” (Boehringer Mannheim GmbH, priority 1991, dated 1995)

Tested on: passive sensitised guinea pig lung parenchyma strips
Assay: Inhibition of the antigen-caused constriction of passive sensitised guinea pig lung parenchyma strips in vitro (organ bath)
Assay type: cell-based
Settings: Cavia porcellus, 20 min, ovalbumin 0.1 μg/ml, 20 min/37°C. preincubation, read-out: % Inhibition of the constriction of passive-sensitised lung parenchyms strips (guinea pigs) induced by ovalbumin; for inhibition at 10 µg/mL: 10 μg/ml substance
Protocol: Inhibition of the antigen-caused construction of passive sensitised guinea pig lung parenchyma strips in vitro (organ bath)
For the in vitro investigation of the compounds according to the invention, the inhibition of the antigen-caused constriction of passive sensitised guinea pig lung parenchyma strips was measured, as described in the following:
Pirbright white guinea pigs were stunned by a blow to the nape of the neck and exsanguinated. The lungs were rinsed substantially blood-free in situ with Krebs buffer, pH 7.4. Subsequently, the lungs were removed, cut up into strips (about […]) and the strips passively sensitised for one hour at room temperature with a 1.:50 dilution of a homologous anti-ovalbumin antiserum and then washed with Krebs buffer 1 x. The antiserum had been previously produced according to DAVIES (1) in guinea pigs of the same strain by repeated injection of ovalbumin (2 x crystallised) with addition of complete Freund's adjuvant. Until its used the antiserum was stored undiluted at -18° C. Subsequently, the lung strips were individually suspended on an isometric measurement sensor in 10 ml waterbaths with an initial tension of 1.2 g. Thereafter, the baths were filled with Krebs buffer and continuously gassed at 37° C. with O2 (95%) and CO2 (5%). Via an amplifier the constrictions of the lung strips were recorded on a recorder. After 30 minutes acclimatisation phase, histamine control spasms were produced for the recognition of the reactivity of the organ pieces washed, subsequently the best substance preincubated 37° C. for 20 minutes and thereafter the ovalbumin-caused constriction initiated. The inhibition action of the compounds according to the invention was expressed as percentage reduction of the constriction amplitude of the "samples with best substance" in relation to the "untreated control constrictions".

| SMILES | inhibition at 10 µg/mL | inhibition at 200 µg/mL (200 μg/ml substance (footnote +)) |
| --- | --- | --- |
| c1ccc(N=c2snc3ccccn23)nc1 [Example 2a, 3-(2-pyridinylimino)-3H-[1,2,4]-thiadiazolo [4,3-a]-pyridine] | 56% |  |
| Clc1ccc2nsc(=Nc3ccncc3)n2c1 [Example 4] | 61% |  |
| c1ccn2c(=Nc3ccncc3)snc2c1 [Example 2b, 3-(4-pyridinylimino)-3H-[1,2,4]-thiadiazolo [4,3-a]-pyridine] | 80% |  |
| COc1ccc(N=c2snc3ccccn23)cc1 [Example 2e, 3-(4-methoxyphenylimino)-3H-[1,2,4]-thiadiazolo-[4,3-a]pyridine] | 48% |  |
| c1ccn2c(=NC3=NCCS3)snc2c1 [Example 2u, 3-(4,5-dihydrothiazol-2-ylimino)-3H-[1,2,4]-thia-diazolo [4,3-a]pyridine] | 78% |  |
| Cn1c(=O)c2[nH]cnc2n(C)c1=O [aminophylline, reference compound] |  | 26% |
| CN(O)C(=O)Cc1ccc(N=c2snc3ccccn23)cc1 [Example 9, 4-(3H-[1,2,4]-Thiadiazole[4,3-a]-pyridin-3-ylideneamino)-phenylacetic acid N-methylhydroxamide] | 61% |  |
| Cc1cc(O)ccc1N=c1snc2ccccn12 [Example 2p, 3-(4-hydroxy-2-methyl-phenylimino)-3H-[1,2,4]-thiadiazolo [4,3-a]-pyridine] | 62% |  |
| c1ccn2c(=Nc3ccc4c(c3)OCO4)snc2c1 [Example 2q, 3-(3,4-methylenedioxyphenyl-imino)-3H-[1,2,4]-thiadia-zolo [4,3-a]-pyridine] | 57% |  |
